According to patent publication US8961946B2, “Hair processing agent and method for permanent waving hair” (Showa Denko K.K., priority 2004, dated 2015):
Counter-ions that a name gives are not always drawn.

Test: Waving efficiency at various pH, compounds (i) and (ii) tested singly (FIG. 1)
Conditions: agent contains the compound at 2% by mass in terms of thioglycolic acid
Description: The hair processing agents tested herein contain the compound at 2% by mass in terms of thioglycolic acid. […] Consequently, the compounds (i) and (ii) in combination provide a permanent waving performance over a wide pH range.

Compound | Changes of waving efficiency at various pH (FIG. 1)
O=C1OCCC1S (centres unmarked) [Synthetic Example 1, 2-mercapto-4-butyrolactone] | high waving efficiency in an acidic to neutral pH range
NCCS [compound (ii), cysteamine hydrochloride] | low waving efficiency at acidic pH, but the waving efficiency linearly increases with the pH increase
